# Data from patent US20230255873A1, “COSMETIC OR DERMATOLOGICAL PEPTIDE-BASED TREATMENT OF THE SKIN AND ITS INTEGUMENTS” (Sederma, priority 2020, published 2023).
# The star is where a group is joined. Palmitoyl = CCCCCCCCCCCCCCCC(=O)*
# What was measured:
# [1] = system: NHKs exposed to UVB; test: ELISA of pro-inflammatory mediators (PGE2 and IL-6) on NHK exposed to UVB; type: cell-based, human
# Method: 1.1—Immuno-Enzymatic Assays (ELISA) on Normal Human Keratinocyte (NHK) Culture Principle: NHKs in culture and at confluence are brought into contact with the peptide of the invention at different concentrations for 24 hours in a medium allowing their survival. Then the cell layers are irradiated with UVB (light stress, intended to mimic an experimental cutaneous micro-inflammation) in a physiological buffer and again brought into contact with the products to be tested for 24 hours. At the end of this incubation, the culture media are assayed by ELISA to evaluate the amounts of pro-inflammatory mediators (PGE2 and IL-6) produced by these cells in response to irradiation. The results are compared to the control. A decrease in the amount of mediators produced will be interpreted as a limitation of damages related to inflammation. An estimate of the cell number is made on the attached layer to reduce the assay results to the number of cells. A study of variances and a Student t test are carried out to judge the significance of the results.
# [2] = system: Normal Human Fibroblasts (NHF); test: Immuno-enzymatic tests on normal human fibroblasts (NHF) culture; type: cell-based; conditions: 3 days
# Method: 1.3—Immuno-Enzymatic Tests on Normal Human Fibroblasts (NHF) Culture Principle: Normal Human Fibroblasts (NHF) are cultured in 24-well plates for 24 hours in the proliferation medium until confluence. The cells are then brought into contact or not (control case) with the preferred peptide according to the invention for 3 days in a medium without serum. The culture media are collected and the concentrations of various elements of the dermis or the basement membrane (PIP (carboxy-terminal propeptide of procollagen type I), collagen I, collagen IV, fibronectin) are measured by ELISA assays. An estimate of cell viability is also carried out at the end of culture, in order to weight the data from the ELISA, using an assay with the Hoechst 33258 reagent (DNA intercalator). A study of variances and a Student t test for paired series were carried out to judge the significance of the results.
# [3] = system: P. acnes (strain ATCC6919); test: Biofilm formation of P. acnes (crystal violet); type: cell-based, Propionibacterium acnes; conditions: 3 days
# Method: The adhesion of 10^6 CFU/mL of P. acnes (strain ATCC6919) to a surface for 72 hours in an appropriate medium was evaluated. At the end of the contact plus more or less the peptide, the quantity of isolated cells, not attached, was estimated by an OD at 600 nm. The biofilm and the bacteria still attached were labeled with crystal violet solution for 20 min. After rinsing, the quantity of crystal violet remaining on the biofilms was assayed, after extraction, also with a measurement of OD at 600 nm.
# [4] = system: P. acnes; test: P. acnes growth curve (time to OD600 nm = 0.5); type: cell-based, Propionibacterium acnes; conditions: for Time (in hour) to reach OD600 nm = 0.5: vehicle 42-44 h
# Method: 1—P. acnes growth curve (same protocol as described above at point 1.4)
# P. acnes is thawed and grown over 3 days in M20 media. Then, optical density at 600 nm (OD600) is measured and 2×10^6 CFU*/mL are plated in well plates. P. acnes is then treated with 6 ppm, 9 ppm and 12 ppm of peptides. To follow bacterial cell multiplication, OD600 is measured regularly for about 1 week. […] Statistical evaluations are performed on results using a Student t test. Two independent experiments are performed (N=2).
# [5] = system: P. acnes; test: Biofilm stability of P. acnes (peptide added 24 hours after start of culture); type: cell-based, Propionibacterium acnes; conditions: peptide added 24 hours after the start of the culture
# Method: The effect of the peptide on the biofilm stability was also evaluated, the peptide being only added 24 hours after the start of the P. acnes culture.
# [6] = system: equivalent skins; test: Thickness of the stratum corneum on equivalent skins; type: cell-based, human; conditions: 2 days of contact, vs control
# Method: Equivalent skins were prepared by first manufacturing an equivalent dermis, then once it contracted, human keratinocytes were seeded on the surface of the gel. After 14 days, equivalent skins were obtained, on which carbopol gels containing the peptide of the invention or the solvent alone were applied to their surface. After 2 days of contact, the skins were frozen to be sectioned into thin 7 μm slides and then marked in order to visualize the macrostructure of the layers. A quantification of the thickness of the stratum corneum was carried out on photos using an image software.
substance,measurement,setting,value
palmitoyl-lysyl-threonyl-serine-lysyl-serine (Palmitoyl-KTSKS-OH; SMILES CCCCCCCCCCCCCCCC(=O)N[C@@H](CCCCN)C(=O)N[C@H](C(=O)N[C@@H](CO)C(=O)N[C@@H](CCCCN)C(=O)N[C@@H](CO)C(=O)O)[C@@H](C)O) [Pal-KTSKS],"IL6 secretion, variation compared to the control",[1]; 3 ppm,−4% (nsd)
same,"PGE2 secretion, variation compared to the control",[1]; 3 ppm,+1% (nsd)
same,"IL6 secretion, variation compared to the control",[1]; 10 ppm,−33% (p < 0.01)
same,"PGE2 secretion, variation compared to the control",[1]; 10 ppm,−41% (p < 0.01)
same,"IL6 secretion, variation compared to the control",[1]; 15 ppm,−65% (p < 0.01)
same,"PGE2 secretion, variation compared to the control",[1]; 15 ppm,−63% (p < 0.01)
same,Collagen I Variation %/control,[2]; 8 ppm,+75%; p < 0.01
same,Collagen IV Variation %/control,[2]; 8 ppm,+18%; p < 0.01
same,Fibronectin Variation %/control,[2]; 8 ppm,+40%; p < 0.01
same,Terminal C peptide of pro-collagen I variation %/control,[2]; 8 ppm,+61%; p < 0.01
same,Collagen I Variation %/control,[2]; 10 ppm,+184%; p < 0.01
same,Collagen IV Variation %/control,[2]; 10 ppm,+98%; p < 0.01
same,Fibronectin Variation %/control,[2]; 10 ppm,+67%; p < 0.01
same,Terminal C peptide of pro-collagen I variation %/control,[2]; 10 ppm,+94%; p < 0.01
same,"Formation of the biofilm by P. acnes, variation vs control",[3]; 6 ppm,−98%
same,"Formation of the biofilm by P. acnes, variation vs control",[3]; 12 ppm,−99%
same,Delay in P. acnes growth versus vehicle,[4]; 6 ppm,+5 h
same,Time (in hour) to reach OD600 nm = 0.5,[4]; 6 ppm,48.8 h
same,Delay in P. acnes growth versus vehicle,[4]; 9 ppm,+11 h
same,Time (in hour) to reach OD600 nm = 0.5,[4]; 9 ppm,55.0 h
same,Delay in P. acnes growth versus vehicle,[4]; 12 ppm,+43 h
same,Time (in hour) to reach OD600 nm = 0.5,[4]; 12 ppm,87.3 h
same,Reduction of the biofilm formed at 72 hours vs control (biofilm stability),[5]; 6 ppm,89%
same,Reduction of the biofilm formed at 72 hours vs control (biofilm stability),[5]; 12 ppm,93%
same,"Thickness of the stratum corneum, Variation (%)",[6]; 8 ppm of peptide in carbopol gel,+150%; p < 0.01
same,"Thickness of the stratum corneum, Variation (%)",[6]; 10 ppm of peptide in carbopol gel,+143%; p < 0.05
